The values that follow come from patent EP4768484A1, “HETEROCYCLIC FUSED RING COMPOUND, AND COMPOSITION AND USE THEREOF” (Shenzhen TargetRx, Inc., priority 2023, dated 2025).

Format in all cases: cell-based
One test has as its system K562 cells. The test is described as follows: Cell growth inhibitory activity assay (CellTiter-Glo), K562 cells. Conditions: Homo sapiens, 72 h, CTG cell viability. The procedure, abridged: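 Growth inhibition of human K562 cells, sourced from Nanjing Kebai (CBP60529), was assessed with Promega's CellTiter-Glo kit, which measures viability through ATP quantification. Log-phase cells went into the inner wells of 96-well plates, with PBS in edge wells, incubated overnight at 37 °C and 5% CO2, then exposed to serially diluted compound for 72 h.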
(In general: Cellular ATP, detected with luciferase, serves as a proxy for viable cell number.)

The next test addresses T1, Ba/F3 BCR-ABL1 WT (Homo sapiens, UniProt P00519+P11274).
T1 construct: BCR (N-terminal fusion partner of the oncoprotein); expressed in transfected cells; host or cells: Ba/F3 (lentiviral transduction, monoclonal line)
The test is described as follows: Cell growth inhibitory activity assay (CellTiter-Glo), Ba/F3 BCR-ABL1 WT cells. Conditions: 72 h, CTG cell viability. The procedure, abridged: (§1)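 Ba/F3 parental cells or Ba/F3 lines lentivirally transduced with WT or mutant BCR-ABL1, seeded overnight then exposed to serially diluted compound 72 h at 37 °C, 5% CO2. Viability by CellTiter-Glo ATP luminescence with a T0 plate; 0.5% DMSO controls; IC50 from four-parameter nonlinear fit.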

The target of another test is T2, Ba/F3 BCR-ABL1 T315I (Homo sapiens, UniProt P00519+P11274, T315I).
T2 construct: BCR (N-terminal fusion partner of the oncoprotein); expressed in transfected cells; host or cells: Ba/F3 (lentiviral transduction, monoclonal line)
The test is described as follows: Cell growth inhibitory activity assay (CellTiter-Glo), Ba/F3 BCR-ABL1 T315I cells. The settings on record: 72 h, CTG cell viability. Put shortly: as §1

For a further test, the target named is T3, Ba/F3 BCR-ABL1 T315M (Homo sapiens, UniProt P00519+P11274, T315M).
T3 construct: BCR (N-terminal fusion partner of the oncoprotein); expressed in transfected cells; host or cells: Ba/F3 (lentiviral transduction, monoclonal line)
The test is described as follows: Cell growth inhibitory activity assay (CellTiter-Glo), Ba/F3 BCR-ABL1 T315M cells. The settings on record: 72 h, CTG cell viability. How it is done:
(§2) In this assay, the Celltiter-Glo (CTG) kit provided by Promega was used, and it is a homogeneous cell viability assay method. The cell viability of cultured cells was measured by quantifying ATP. K562 cells were purchased from Nanjing Kebai, product number CBP60529; Ba/F3 parental cells were purchased from RIKEN BRC, product number RCB0805; other cells containing BCR-ABL1 WT, BCR-ABL1 T315I, BCR-ABL1 T315M, BCR-ABL1 Y253H/E255K, BCR-ABL1 E255V/T3151, BCR-ABL1 A424T, BCR-ABL1 A337V, BCR-ABL1 P465S, BCR-ABL1 V468F, and BCR-ABL1 I502L were all monoclonal engineered cell lines obtained by transducting Ba/F3 parental cells with the lentivirus plasmids containing WT or corresponding mutated BCR-ABL1.
(§3) The steps of cell viability assay are as follows: • a) Cells in logarithmic growth phase were collected. Cell suspension was prepared and the cells were counted. Concentration of the cells was calculated. • b) The cell suspension was diluted to the required concentration and then added to the middle wells of a 96-well plate, and PBS was added to the edge wells. The wells with no cells and only culture medium were used as blank controls. • c) In addition to the cell plate used for compound analysis, another 96-well plate was prepared as a T0 plate, and 3-6 blank wells and 3-6 cell wells were added. The next day, CTG was used to test the cell viability as the T0 viability value of the cells. • d) The cell plate was incubated at 37 °C in a 5% CO2 incubator overnight. • e) The next day, each concentration of a compound subjected to a gradient dilution was added, and the cell plate was incubated at 37 °C in a 5% CO2 incubator for 72 h. The wells with no compound and only 0.5% DMSO were used as positive controls for cell growth. • f) CTG reagent (CellTiter-Glo kit) was added according to the manufacturer's instructions to test the cell viability value. • g) The plate was read using Biotek cytation3.0 microplate reader and the data were exported. • h) IC50 was calculated using GraphPad Prism 7.0 software.
(§4) The IC50 (half-maximal inhibitory concentration) of the compound was obtained using the following nonlinear fitting formula: Y = Bottom + (Top−Bottom)/(1+10^(∧)((LogIC50−X)*HillSlope)) [formula] • X: Log value of the compound concentration • Y: Inhibition rate (% inhibition) • Top: Maximum response • Bottom: Baseline response • HillSlope: Slope of the curve
(§5) The formula for calculating cell inhibition rate (inhibition rate %) was: [formula]

A further test has as its system Ba/F3 parental cells. As to the kind of experiment: Cell growth inhibitory activity assay (CellTiter-Glo), Ba/F3 parental cells. The settings on record: Mus musculus, BaF3, 72 h, CTG cell viability, read-out: IC50 Ba/F3 BCR-ABL1 Parental. Put shortly:
as §1

The target of test [1] is T4, Ba/F3 BCR-ABL1 Y253H/E255K (Homo sapiens, UniProt P00519+P11274, E255K/Y253H).
T4 construct: BCR (N-terminal fusion partner of the oncoprotein); expressed in transfected cells; host or cells: Ba/F3 (lentiviral transduction, monoclonal line)
The test is described as follows: Cell growth inhibitory activity assay (CellTiter-Glo), Ba/F3 BCR-ABL1 Y253H/E255K cells. Conditions: 72 h, CTG cell viability. How it is done:
as §2, §3, §4, §5

The target in test [2] is T5, Ba/F3 BCR-ABL1 E255V/T315I (Homo sapiens, UniProt P00519+P11274, E255V/T315I).
T5 construct: BCR (N-terminal fusion partner of the oncoprotein); expressed in transfected cells; host or cells: Ba/F3 (lentiviral transduction, monoclonal line)
The test is described as follows: Cell growth inhibitory activity assay (CellTiter-Glo), Ba/F3 BCR-ABL1 E255V/T315I cells. The settings on record: 72 h, CTG cell viability. How it is done: as §2, §3, §4, §5

Structures are written as SMILES.

As for `C[C@@H]1CCC(O)c2nc3cc(C(=O)Nc4ccc(OC(F)(F)Cl)cc4)cc(-c4cnc5c(c4)C(=O)N(C4CC4)C5)c3n21` (stereo partly drawn) [T-32, (1R)-N-(4-(chlorodifluoromethoxy)phenyl)-9-(6-cyclopropyl-5-oxo-6,7-dihydro-5H-pyrrolo[3,4-b]pyridin-3-yl)-4-hydroxy-1-methyl-1,2,3,4-tetrahydrobenzo[4,5]imidazo[1,2-a]pyridine-7-carboxamide], the IC50 was at most 5 nM in the test on K562 cells; at most 5 nM against Ba/F3 BCR-ABL1 WT; 50 to 1000 nM against Ba/F3 BCR-ABL1 T315I; 50 to 1000 nM against Ba/F3 BCR-ABL1 T315M; over 1000 nM with Ba/F3 parental cells.

Consider `C[C@@H]1CCC(O)c2nc3cc(C(=O)Nc4ccc(OC(F)(F)Cl)cc4)cc(-c4cnc5c(c4)C(=O)NC5)c3n21` (stereo partly drawn) [T-33, (1R)-N-(4-(chlorodifluoromethoxy)phenyl)-4-hydroxy-1-methyl-9-(5-oxo-6,7-dihydro-5H-pyrrolo[3,4-b]pyridin-3-yl)-1,2,3,4-tetrahydrobenzo[4,5]imidazo[1,2-a]pyridine-7-carboxamide], for which the IC50 is at most 5 nM in the test on K562 cells; 5 to 50 nM against Ba/F3 BCR-ABL1 WT; 50 to 1000 nM against Ba/F3 BCR-ABL1 T315I; 50 to 1000 nM on Ba/F3 BCR-ABL1 T315M; over 1000 nM in the test with Ba/F3 parental cells.

On to `C[C@@H]1CCC(F)c2nc3cc(C(=O)Nc4ccc(OC(F)(F)Cl)cc4)cc(-c4cnc5c(c4)C(=O)N(C4CC4)C5)c3n21` (stereo partly drawn) [T-35], for which the IC50 with K562 cells is at most 5 nM; against Ba/F3 BCR-ABL1 WT it was at most 5 nM; against Ba/F3 BCR-ABL1 T315I, 5 to 50 nM; at Ba/F3 BCR-ABL1 T315M, 5 to 50 nM; in the test on Ba/F3 parental cells, over 1000 nM.

For the compound `C[C@@H]1CN(C)CCc2nc3cc(C(=O)Nc4ccc(OC(F)(F)Cl)cc4)cc(-c4cnc5c(c4)C(=O)N(C4CC4)C5)c3n21` [T-37, (R)-N-(4-(chlorodifluoromethoxy)phenyl)-10-(6-cyclopropyl-5-oxo-6,7-dihydro-5H-pyrrolo[3,4-b]pyridin-3-yl)-1,3-dimethyl-2,3,4,5-tetrahydro-1H-benzo[4,5]imidazo[1,2-d][1,4]diazepine-8-carboxamide], the IC50 with K562 cells is 50 to 1000 nM; at Ba/F3 BCR-ABL1 WT it was over 1000 nM; on Ba/F3 BCR-ABL1 T315I it was over 1000 nM; against Ba/F3 BCR-ABL1 T315M, over 1000 nM; in the test with Ba/F3 parental cells it was over 1000 nM.

In the case of `C[C@@H]1CCOCc2nc3cc(C(=O)Nc4ccc(OC(F)(F)Cl)cc4)cc(-c4cnc5c(c4)C(=O)N(C)C5)c3n21` [T-39, (R)-N-(4-(chlorodifluoromethoxy)phenyl)-5-methyl-7-(6-methyl-5-oxo-6,7-dihydro-5H-pyrrolo[3,4-b]pyridin-3-yl)-4,5-dihydro-1H,3H-benzo[4,5]imidazo[2,1-c][1,4]oxazepine-9-carboxamide], the IC50 with K562 cells is at most 5 nM; against Ba/F3 BCR-ABL1 WT, at most 5 nM; against Ba/F3 BCR-ABL1 T315I it was 50 to 1000 nM; against Ba/F3 BCR-ABL1 T315M, over 1000 nM; with Ba/F3 parental cells it was over 1000 nM.

In the case of `CC(=O)n1cc2c(n1)-c1cc(-c3cc(C(=O)Nc4ccc(OC(F)(F)Cl)cc4)cc4nc5n(c34)[C@H](C)COC5)cnc1C2` [T-43, (R)-6-(2-acetyl-2,4-dihydropyrazolo[3',4':3,4]cyclopenta[1,2-b]pyridin-7-yl)-N-(4-(chlorodifluoromethoxy)phenyl)-4-methyl-3,4-dihydro-1H-benzo[4,5]imidazo[2,1-c][1,4]oxazine-8-carboxamide], the IC50 is at most 5 nM in the test with K562 cells; at most 5 nM against Ba/F3 BCR-ABL1 WT; at most 5 nM on Ba/F3 BCR-ABL1 T315I; 50 to 1000 nM against Ba/F3 BCR-ABL1 T315M; over 1000 nM with Ba/F3 parental cells.

Turning to `C[C@@H]1COCc2nc3cc(C(=O)Nc4ccc(OC(F)(F)Cl)cc4)cc(-c4cnc5c(c4)-c4nn(-c6ccncn6)cc4C5)c3n21` [T-67, (R)-N-(4-(chlorodifluoromethoxy)phenyl)-4-methyl-6-(2-(pyrimidin-4-yl)-2,4-dihydropyrazolo[3',4':3,4]cyclopenta[1,2-b]pyridin-7-yl)-3,4-dihydro-1H-benzo[4,5]imidazo[2,1-c][1,4]oxazine-8-carboxamide], the IC50 in the test on K562 cells was at most 5 nM; on Ba/F3 BCR-ABL1 WT, at most 5 nM; against Ba/F3 BCR-ABL1 T315I it was at most 5 nM; in the test on Ba/F3 parental cells, over 1000 nM; in test [1], at most 5 nM.

Regarding `Cc1ccnc(-n2cc3c(n2)-c2cc(-c4cc(C(=O)Nc5ccc(OC(F)(F)Cl)cc5)cc5nc6n(c45)[C@H](C)COC6)cnc2C3)n1` [T-73, (R)-N-(4-(chlorodifluoromethoxy)phenyl)-4-methyl-6-(2-(4-methylpyrimidin-2-yl)-2,4-dihydropyrazolo[3',4':3,4]cyclopenta[1,2-b]pyridin-7-yl)-3,4-dihydro-1H-benzo[4,5]imidazo[2,1-c][1,4]oxazine-8-carboxamide], the IC50 with K562 cells was at most 5 nM; against Ba/F3 BCR-ABL1 WT, at most 5 nM; against Ba/F3 BCR-ABL1 T315I, at most 5 nM; at Ba/F3 BCR-ABL1 T315M, at most 5 nM; in the test on Ba/F3 parental cells, over 1000 nM.

Turning to `C[C@@H]1COCc2nc3cc(C(=O)Nc4ccc(OC(F)(F)Cl)cc4)cc(-c4cnc5c(c4)-c4nn(-c6ncc(C#N)cn6)cc4C5)c3n21` [T-78, (R)-N-(4-(chlorodifluoromethoxy)phenyl)-6-(2-(5-cyanopyrimidin-2-yl)-2,4-dihydropyrazolo[3',4':3,4]cyclopenta[1,2-b]pyridin-7-yl)-4-methyl-3,4-dihydro-1H-benzo[4,5]imidazo[2,1-c][1,4]oxazine-8-carboxamide], the IC50 is at most 5 nM with K562 cells; at most 5 nM on Ba/F3 BCR-ABL1 WT; at most 5 nM at Ba/F3 BCR-ABL1 T315I; over 1000 nM in the test with Ba/F3 parental cells; at most 5 nM in test [1]; at most 5 nM in test [2].

On to `C[C@@H]1COCc2nc3cc(C(=O)Nc4ccc(OC(F)(F)Cl)cc4)cc(-c4cnc5c(c4)-c4nc(N)sc4C5)c3n21` [T-114, (R)-6-(2-amino-4H-thiazolo[4',5':3,4]cyclopenta[1,2-b]pyridin-7-yl)-N-(4-(chlorodifluoromethoxy)phenyl)-4-methyl-3,4-dihydro-1H-benzo[4,5]imidazo[2,1-c][1,4]oxazine-8-carboxamide], for which the IC50 with K562 cells was at most 5 nM; on Ba/F3 BCR-ABL1 WT, at most 5 nM; at Ba/F3 BCR-ABL1 T315I, 5 to 50 nM; against Ba/F3 BCR-ABL1 T315M, over 1000 nM; with Ba/F3 parental cells, over 1000 nM; in test [1] it was 5 to 50 nM. This compound displayed an IC50 in test [2] of 50 to 1000 nM.

As for `C[C@@H]1CC[S+]([O-])c2nc3cc(C(=O)Nc4ccc(OC(F)(F)Cl)cc4)cc(-c4cnccn4)c3n21` (stereo partly drawn) [T-117, (4R)-N-(4-(chlorodifluoromethoxy)phenyl)-4-methyl-6-(pyrazin-2-yl)-3,4-dihydro-2H-benzo[4,5]imidazo[2,1-b][1,3]thiazine-8-carboxamide 1-oxide], the IC50 in the test with K562 cells was at most 5 nM; against Ba/F3 BCR-ABL1 WT, at most 5 nM; at Ba/F3 BCR-ABL1 T315I, 5 to 50 nM; against Ba/F3 BCR-ABL1 T315M, over 1000 nM; in the test on Ba/F3 parental cells, over 1000 nM.

On to `C[C@@H]1CCS(=O)(=O)c2nc3cc(C(=O)Nc4ccc(OC(F)(F)Cl)cc4)cc(-c4cnccn4)c3n21` [T-118, (R)-N-(4-(chlorodifluoromethoxy)phenyl)-4-methyl-6-(pyrazin-2-yl)-3,4-dihydro-2H-benzo[4,5]imidazo[2,1-b][1,3]thiazine-8-carboxamide 1,1-dioxide], for which the IC50 with K562 cells is at most 5 nM; at Ba/F3 BCR-ABL1 WT, at most 5 nM; against Ba/F3 BCR-ABL1 T315I it was 5 to 50 nM; on Ba/F3 BCR-ABL1 T315M, 50 to 1000 nM; in the test on Ba/F3 parental cells, over 1000 nM.
